Laboratory results taken from ChEMBL document CHEMBL1145498, “A systematic interaction map of validated kinase inhibitors with Ser/Thr kinases” (Proc Natl Acad Sci U S A, 2007).

molecular target: 5'-AMP-activated protein kinase catalytic subunit alpha-2 (Homo sapiens) (UniProt P54646)

Compound	ΔTm
CC(C)(C)n1nc(-c2ccc(Cl)cc2)c2c(N)ncnc21	0.7 °C
CSc1nc(-c2ccc(F)cc2)c(-c2ccnc(NC(C)c3ccccc3)c2)[nH]1 (racemic)	-0.4 °C
Cc1nc2sccn2c(=O)c1CCN1CCC(=C(c2ccccc2)c2ccc(F)cc2)CC1	-0.1 °C

molecular target: Calcium/calmodulin-dependent protein kinase kinase 2 (Homo sapiens, UniProt Q96RR4)
Sequence (Q96RR4 2-588 limits assumed): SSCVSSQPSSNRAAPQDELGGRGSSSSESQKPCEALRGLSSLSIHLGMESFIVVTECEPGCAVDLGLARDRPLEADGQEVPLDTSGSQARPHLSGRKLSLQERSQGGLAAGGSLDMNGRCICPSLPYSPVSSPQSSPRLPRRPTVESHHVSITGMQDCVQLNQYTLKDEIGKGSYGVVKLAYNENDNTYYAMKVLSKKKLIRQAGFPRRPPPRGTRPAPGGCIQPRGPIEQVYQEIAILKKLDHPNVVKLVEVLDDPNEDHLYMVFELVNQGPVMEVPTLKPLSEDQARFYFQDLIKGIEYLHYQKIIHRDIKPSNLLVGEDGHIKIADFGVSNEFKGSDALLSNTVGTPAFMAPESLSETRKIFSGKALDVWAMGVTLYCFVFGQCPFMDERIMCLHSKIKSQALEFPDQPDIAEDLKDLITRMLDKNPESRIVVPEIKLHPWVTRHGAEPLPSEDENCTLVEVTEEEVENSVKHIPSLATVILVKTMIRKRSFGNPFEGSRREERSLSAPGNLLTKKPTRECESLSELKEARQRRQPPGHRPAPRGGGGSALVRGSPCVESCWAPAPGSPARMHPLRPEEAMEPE

Compound	ΔTm
CC(C)(C)n1nc(-c2ccc(Cl)cc2)c2c(N)ncnc21	1 °C
CSc1nc(-c2ccc(F)cc2)c(-c2ccnc(NC(C)c3ccccc3)c2)[nH]1 (racemic)	0.7 °C
Cc1nc2sccn2c(=O)c1CCN1CCC(=C(c2ccccc2)c2ccc(F)cc2)CC1	0.6 °C

molecular target: Casein kinase I isoform gamma-3 (Homo sapiens) (UniProt Q9Y6M4)
Sequence (Q9Y6M4 whole entry, looked up, canonical isoform): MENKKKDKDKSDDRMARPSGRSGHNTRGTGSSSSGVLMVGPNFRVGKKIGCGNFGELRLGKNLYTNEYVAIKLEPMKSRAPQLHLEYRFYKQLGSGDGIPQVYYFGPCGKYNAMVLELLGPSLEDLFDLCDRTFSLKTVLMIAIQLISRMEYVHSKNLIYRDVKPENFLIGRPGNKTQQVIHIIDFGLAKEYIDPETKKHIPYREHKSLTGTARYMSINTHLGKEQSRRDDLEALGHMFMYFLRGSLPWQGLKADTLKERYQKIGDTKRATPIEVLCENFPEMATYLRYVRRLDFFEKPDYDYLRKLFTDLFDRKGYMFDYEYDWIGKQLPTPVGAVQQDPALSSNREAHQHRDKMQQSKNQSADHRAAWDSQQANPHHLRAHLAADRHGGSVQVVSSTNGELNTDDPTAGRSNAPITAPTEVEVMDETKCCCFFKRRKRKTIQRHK

Compound	ΔTm
CC(C)(C)n1nc(-c2ccc(Cl)cc2)c2c(N)ncnc21	0.6 °C
CSc1nc(-c2ccc(F)cc2)c(-c2ccnc(NC(C)c3ccccc3)c2)[nH]1 (racemic)	3.4 °C
Cc1nc2sccn2c(=O)c1CCN1CCC(=C(c2ccccc2)c2ccc(F)cc2)CC1	0.3 °C

molecular target: Tyrosine-protein kinase JAK1 (Homo sapiens) (UniProt P23458)
Sequence (P23458 whole entry): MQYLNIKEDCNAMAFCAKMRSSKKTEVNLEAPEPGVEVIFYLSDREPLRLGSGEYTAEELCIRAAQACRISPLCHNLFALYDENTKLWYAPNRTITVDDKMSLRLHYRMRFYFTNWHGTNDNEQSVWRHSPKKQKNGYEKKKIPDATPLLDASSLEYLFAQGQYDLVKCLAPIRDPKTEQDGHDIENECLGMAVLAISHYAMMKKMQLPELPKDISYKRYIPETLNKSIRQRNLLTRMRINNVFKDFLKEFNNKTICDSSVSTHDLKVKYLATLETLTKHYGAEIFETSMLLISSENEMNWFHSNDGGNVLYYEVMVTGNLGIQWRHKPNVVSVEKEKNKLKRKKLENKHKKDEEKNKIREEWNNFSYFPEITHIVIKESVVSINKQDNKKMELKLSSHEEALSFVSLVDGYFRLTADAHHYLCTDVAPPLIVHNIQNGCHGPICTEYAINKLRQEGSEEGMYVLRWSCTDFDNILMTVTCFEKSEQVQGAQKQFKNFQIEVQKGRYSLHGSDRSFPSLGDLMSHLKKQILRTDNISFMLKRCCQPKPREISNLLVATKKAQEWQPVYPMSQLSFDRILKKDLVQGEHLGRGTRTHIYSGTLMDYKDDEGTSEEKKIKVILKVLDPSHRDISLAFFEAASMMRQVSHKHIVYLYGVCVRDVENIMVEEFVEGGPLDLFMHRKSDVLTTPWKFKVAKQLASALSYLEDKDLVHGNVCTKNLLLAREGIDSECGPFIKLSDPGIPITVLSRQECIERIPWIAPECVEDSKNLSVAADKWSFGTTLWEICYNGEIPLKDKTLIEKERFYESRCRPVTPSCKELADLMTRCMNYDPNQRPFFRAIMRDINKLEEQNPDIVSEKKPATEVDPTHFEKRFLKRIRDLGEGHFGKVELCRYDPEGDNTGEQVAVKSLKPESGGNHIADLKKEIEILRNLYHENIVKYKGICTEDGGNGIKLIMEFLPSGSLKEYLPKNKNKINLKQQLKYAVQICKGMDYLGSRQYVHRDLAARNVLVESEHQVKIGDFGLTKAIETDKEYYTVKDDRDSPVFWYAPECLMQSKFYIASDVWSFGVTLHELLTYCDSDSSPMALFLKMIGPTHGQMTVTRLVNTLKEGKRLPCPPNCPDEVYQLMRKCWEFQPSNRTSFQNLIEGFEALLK

Compound	ΔTm
CC(C)(C)n1nc(-c2ccc(Cl)cc2)c2c(N)ncnc21	0.3 °C
CSc1nc(-c2ccc(F)cc2)c(-c2ccnc(NC(C)c3ccccc3)c2)[nH]1 (racemic)	0.9 °C
Cc1nc2sccn2c(=O)c1CCN1CCC(=C(c2ccccc2)c2ccc(F)cc2)CC1	4.8 °C

molecular target: T1, Mitogen-activated protein kinase kinase kinase 5 (Homo sapiens) (UniProt Q99683)
T1 sequence (whole entry): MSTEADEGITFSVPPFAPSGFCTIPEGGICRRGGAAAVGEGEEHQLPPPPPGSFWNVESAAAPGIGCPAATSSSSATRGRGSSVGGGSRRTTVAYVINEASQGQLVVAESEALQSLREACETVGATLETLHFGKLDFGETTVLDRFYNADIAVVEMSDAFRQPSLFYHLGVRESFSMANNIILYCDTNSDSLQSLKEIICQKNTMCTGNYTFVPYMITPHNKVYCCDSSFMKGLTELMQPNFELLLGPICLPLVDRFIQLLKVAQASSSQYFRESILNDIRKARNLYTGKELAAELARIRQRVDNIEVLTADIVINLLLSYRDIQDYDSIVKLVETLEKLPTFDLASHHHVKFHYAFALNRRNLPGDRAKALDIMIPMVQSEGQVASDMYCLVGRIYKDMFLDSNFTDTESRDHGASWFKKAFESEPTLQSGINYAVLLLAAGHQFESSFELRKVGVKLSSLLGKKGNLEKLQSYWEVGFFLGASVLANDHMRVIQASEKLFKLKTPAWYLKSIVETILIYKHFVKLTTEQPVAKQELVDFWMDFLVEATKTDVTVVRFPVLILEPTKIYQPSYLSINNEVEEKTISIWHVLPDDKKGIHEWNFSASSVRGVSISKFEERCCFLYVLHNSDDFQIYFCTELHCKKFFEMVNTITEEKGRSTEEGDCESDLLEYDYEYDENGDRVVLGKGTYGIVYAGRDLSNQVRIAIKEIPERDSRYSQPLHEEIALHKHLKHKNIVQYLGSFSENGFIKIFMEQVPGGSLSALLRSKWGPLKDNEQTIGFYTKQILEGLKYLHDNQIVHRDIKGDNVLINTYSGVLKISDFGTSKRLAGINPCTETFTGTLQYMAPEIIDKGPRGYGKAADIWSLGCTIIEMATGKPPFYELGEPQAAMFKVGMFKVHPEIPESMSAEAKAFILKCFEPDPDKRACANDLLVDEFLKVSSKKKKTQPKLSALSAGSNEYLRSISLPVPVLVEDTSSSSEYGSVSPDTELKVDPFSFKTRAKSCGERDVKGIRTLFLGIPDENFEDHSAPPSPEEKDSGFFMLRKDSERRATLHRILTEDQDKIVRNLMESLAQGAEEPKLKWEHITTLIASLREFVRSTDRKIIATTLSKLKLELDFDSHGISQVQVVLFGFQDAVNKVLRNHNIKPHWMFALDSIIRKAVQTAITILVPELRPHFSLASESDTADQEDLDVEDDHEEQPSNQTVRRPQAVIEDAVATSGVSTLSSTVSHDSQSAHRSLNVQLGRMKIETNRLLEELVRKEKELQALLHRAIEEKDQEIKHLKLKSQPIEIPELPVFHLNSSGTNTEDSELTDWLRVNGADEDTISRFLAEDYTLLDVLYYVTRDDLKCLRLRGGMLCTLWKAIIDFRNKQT

Compound	ΔTm
CC(C)(C)n1nc(-c2ccc(Cl)cc2)c2c(N)ncnc21	0.3 °C
CSc1nc(-c2ccc(F)cc2)c(-c2ccnc(NC(C)c3ccccc3)c2)[nH]1 (racemic)	0.4 °C
Cc1nc2sccn2c(=O)c1CCN1CCC(=C(c2ccccc2)c2ccc(F)cc2)CC1	5.8 °C

molecular target: Serine/threonine-protein kinase 26 (Homo sapiens) (UniProt Q9P289)
Sequence (Q9P289 2-416 limits assumed): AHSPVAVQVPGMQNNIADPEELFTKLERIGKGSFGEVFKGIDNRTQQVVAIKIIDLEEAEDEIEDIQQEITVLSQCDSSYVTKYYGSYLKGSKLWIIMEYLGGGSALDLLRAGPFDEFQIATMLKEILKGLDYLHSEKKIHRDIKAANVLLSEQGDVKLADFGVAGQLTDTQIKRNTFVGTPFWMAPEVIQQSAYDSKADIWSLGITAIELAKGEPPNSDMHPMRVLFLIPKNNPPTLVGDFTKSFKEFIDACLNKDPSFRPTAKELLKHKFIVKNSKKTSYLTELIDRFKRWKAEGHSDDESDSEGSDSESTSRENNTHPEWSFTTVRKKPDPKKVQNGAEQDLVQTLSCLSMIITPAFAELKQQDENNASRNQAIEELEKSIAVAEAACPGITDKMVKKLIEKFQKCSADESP

Compound	ΔTm
CC(C)(C)n1nc(-c2ccc(Cl)cc2)c2c(N)ncnc21	-0.5 °C
CSc1nc(-c2ccc(F)cc2)c(-c2ccnc(NC(C)c3ccccc3)c2)[nH]1 (racemic)	0.7 °C
Cc1nc2sccn2c(=O)c1CCN1CCC(=C(c2ccccc2)c2ccc(F)cc2)CC1	-0.1 °C

molecular target: Serine/threonine-protein kinase Nek6 (Homo sapiens) (UniProt Q9HC98)
Sequence (Q9HC98 whole entry): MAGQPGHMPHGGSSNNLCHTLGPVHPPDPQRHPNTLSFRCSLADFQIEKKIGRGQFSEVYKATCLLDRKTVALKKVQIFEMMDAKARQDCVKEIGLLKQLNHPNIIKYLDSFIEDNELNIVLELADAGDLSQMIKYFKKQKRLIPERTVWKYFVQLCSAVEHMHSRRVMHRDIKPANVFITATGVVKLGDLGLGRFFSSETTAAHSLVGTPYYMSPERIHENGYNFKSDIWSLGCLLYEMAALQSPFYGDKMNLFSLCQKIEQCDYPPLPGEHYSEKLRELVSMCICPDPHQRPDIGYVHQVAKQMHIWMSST

Compound	ΔTm
CC(C)(C)n1nc(-c2ccc(Cl)cc2)c2c(N)ncnc21	0.2 °C
CSc1nc(-c2ccc(F)cc2)c(-c2ccnc(NC(C)c3ccccc3)c2)[nH]1 (racemic)	0.5 °C
Cc1nc2sccn2c(=O)c1CCN1CCC(=C(c2ccccc2)c2ccc(F)cc2)CC1	0.1 °C

molecular target: Serine/threonine-protein kinase PAK 6 (Homo sapiens) (UniProt Q9NQU5)

Compound	ΔTm
CC(C)(C)n1nc(-c2ccc(Cl)cc2)c2c(N)ncnc21	-0.1 °C
CSc1nc(-c2ccc(F)cc2)c(-c2ccnc(NC(C)c3ccccc3)c2)[nH]1 (racemic)	-0.3 °C
Cc1nc2sccn2c(=O)c1CCN1CCC(=C(c2ccccc2)c2ccc(F)cc2)CC1	0.8 °C

molecular target: Cyclin-dependent kinase 16 (Homo sapiens) (UniProt Q00536)

Compound	ΔTm
CC(C)(C)n1nc(-c2ccc(Cl)cc2)c2c(N)ncnc21	-0.5 °C
CSc1nc(-c2ccc(F)cc2)c(-c2ccnc(NC(C)c3ccccc3)c2)[nH]1 (racemic)	0.4 °C
Cc1nc2sccn2c(=O)c1CCN1CCC(=C(c2ccccc2)c2ccc(F)cc2)CC1	-0.5 °C

molecular target: Serine/threonine-protein kinase pim-2 (Homo sapiens, UniProt Q9P1W9)
Sequence (Q9P1W9 whole entry, looked up): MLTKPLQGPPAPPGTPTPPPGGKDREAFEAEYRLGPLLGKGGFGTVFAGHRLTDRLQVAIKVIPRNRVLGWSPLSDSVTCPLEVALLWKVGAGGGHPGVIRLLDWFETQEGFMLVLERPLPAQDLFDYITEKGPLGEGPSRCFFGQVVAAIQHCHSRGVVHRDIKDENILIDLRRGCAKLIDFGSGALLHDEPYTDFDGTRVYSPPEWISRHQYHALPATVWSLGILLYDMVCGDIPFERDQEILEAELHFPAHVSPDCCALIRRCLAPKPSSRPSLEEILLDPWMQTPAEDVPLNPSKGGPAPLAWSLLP

Compound	ΔTm
CC(C)(C)n1nc(-c2ccc(Cl)cc2)c2c(N)ncnc21	0.2 °C
CSc1nc(-c2ccc(F)cc2)c(-c2ccnc(NC(C)c3ccccc3)c2)[nH]1 (racemic)	-0.2 °C
Cc1nc2sccn2c(=O)c1CCN1CCC(=C(c2ccccc2)c2ccc(F)cc2)CC1	3.3 °C

molecular target: cAMP-dependent protein kinase catalytic subunit alpha (Homo sapiens) (UniProt P17612)

Compound	ΔTm
CC(C)(C)n1nc(-c2ccc(Cl)cc2)c2c(N)ncnc21	2.3 °C
CSc1nc(-c2ccc(F)cc2)c(-c2ccnc(NC(C)c3ccccc3)c2)[nH]1 (racemic)	-0.7 °C
Cc1nc2sccn2c(=O)c1CCN1CCC(=C(c2ccccc2)c2ccc(F)cc2)CC1	1.6 °C

molecular target: Serine/threonine-protein kinase 10 (Homo sapiens) (UniProt O94804)
Sequence (O94804 whole entry, looked up): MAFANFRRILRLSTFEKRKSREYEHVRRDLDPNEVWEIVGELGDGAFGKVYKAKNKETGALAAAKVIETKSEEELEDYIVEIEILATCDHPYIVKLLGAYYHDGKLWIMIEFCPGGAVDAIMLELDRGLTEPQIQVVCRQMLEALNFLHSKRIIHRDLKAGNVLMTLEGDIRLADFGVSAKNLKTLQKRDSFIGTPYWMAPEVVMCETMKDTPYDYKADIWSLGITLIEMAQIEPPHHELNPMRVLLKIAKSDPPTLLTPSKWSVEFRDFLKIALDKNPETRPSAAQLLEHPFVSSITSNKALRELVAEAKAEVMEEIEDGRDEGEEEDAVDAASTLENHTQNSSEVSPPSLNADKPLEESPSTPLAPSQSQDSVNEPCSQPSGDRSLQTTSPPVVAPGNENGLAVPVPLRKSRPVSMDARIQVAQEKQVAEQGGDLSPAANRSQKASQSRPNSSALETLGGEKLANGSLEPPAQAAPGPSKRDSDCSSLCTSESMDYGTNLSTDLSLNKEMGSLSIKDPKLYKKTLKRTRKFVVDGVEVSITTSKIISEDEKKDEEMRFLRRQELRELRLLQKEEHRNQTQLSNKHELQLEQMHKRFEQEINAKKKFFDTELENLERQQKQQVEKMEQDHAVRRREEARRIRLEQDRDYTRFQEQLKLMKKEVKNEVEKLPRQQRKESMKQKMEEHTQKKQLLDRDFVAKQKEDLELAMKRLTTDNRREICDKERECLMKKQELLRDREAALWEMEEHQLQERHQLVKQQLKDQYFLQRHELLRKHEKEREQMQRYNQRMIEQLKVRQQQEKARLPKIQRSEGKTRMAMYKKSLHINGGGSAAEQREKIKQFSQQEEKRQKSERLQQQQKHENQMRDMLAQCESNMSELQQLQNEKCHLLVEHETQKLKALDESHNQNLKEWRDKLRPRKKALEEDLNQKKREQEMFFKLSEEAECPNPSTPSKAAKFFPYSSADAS

Compound	ΔTm
CC(C)(C)n1nc(-c2ccc(Cl)cc2)c2c(N)ncnc21	4.7 °C
CSc1nc(-c2ccc(F)cc2)c(-c2ccnc(NC(C)c3ccccc3)c2)[nH]1 (racemic)	1.9 °C
Cc1nc2sccn2c(=O)c1CCN1CCC(=C(c2ccccc2)c2ccc(F)cc2)CC1	3.1 °C

molecular target: T2, Serine/threonine-protein kinase 17A (Homo sapiens) (UniProt Q9UEE5)
T2 sequence (whole entry): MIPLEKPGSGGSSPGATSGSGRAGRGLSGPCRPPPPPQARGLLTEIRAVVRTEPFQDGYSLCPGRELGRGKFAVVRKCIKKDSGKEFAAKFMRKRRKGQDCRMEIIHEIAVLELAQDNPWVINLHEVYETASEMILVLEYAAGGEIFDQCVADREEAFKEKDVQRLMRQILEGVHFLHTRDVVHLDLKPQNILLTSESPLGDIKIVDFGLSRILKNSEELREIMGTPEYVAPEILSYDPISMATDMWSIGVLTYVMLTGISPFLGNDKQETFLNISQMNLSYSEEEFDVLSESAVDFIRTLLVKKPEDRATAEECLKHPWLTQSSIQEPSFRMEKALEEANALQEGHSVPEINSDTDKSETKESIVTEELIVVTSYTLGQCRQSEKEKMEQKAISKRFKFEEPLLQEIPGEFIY

Compound	ΔTm
CC(C)(C)n1nc(-c2ccc(Cl)cc2)c2c(N)ncnc21	0.1 °C
CSc1nc(-c2ccc(F)cc2)c(-c2ccnc(NC(C)c3ccccc3)c2)[nH]1 (racemic)	0.1 °C
Cc1nc2sccn2c(=O)c1CCN1CCC(=C(c2ccccc2)c2ccc(F)cc2)CC1	8.8 °C

molecular target: Serine/threonine-protein kinase 38 (Homo sapiens) (UniProt Q15208)
Sequence (Q15208 2-465 limits assumed): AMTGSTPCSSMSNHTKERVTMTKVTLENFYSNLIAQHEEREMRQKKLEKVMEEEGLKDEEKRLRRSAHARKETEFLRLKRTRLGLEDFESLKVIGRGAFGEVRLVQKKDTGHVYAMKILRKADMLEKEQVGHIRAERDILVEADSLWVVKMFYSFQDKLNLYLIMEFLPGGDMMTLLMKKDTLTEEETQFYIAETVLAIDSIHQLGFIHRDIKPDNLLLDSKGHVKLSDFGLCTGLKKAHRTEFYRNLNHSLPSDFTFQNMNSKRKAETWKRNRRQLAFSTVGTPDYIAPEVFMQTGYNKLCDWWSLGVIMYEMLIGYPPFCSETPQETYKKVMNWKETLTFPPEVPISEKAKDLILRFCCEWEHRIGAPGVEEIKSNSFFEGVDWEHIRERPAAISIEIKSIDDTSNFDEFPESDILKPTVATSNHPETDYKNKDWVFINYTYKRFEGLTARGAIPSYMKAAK

Compound	ΔTm
CC(C)(C)n1nc(-c2ccc(Cl)cc2)c2c(N)ncnc21	0.7 °C
CSc1nc(-c2ccc(F)cc2)c(-c2ccnc(NC(C)c3ccccc3)c2)[nH]1 (racemic)	0.3 °C
Cc1nc2sccn2c(=O)c1CCN1CCC(=C(c2ccccc2)c2ccc(F)cc2)CC1	0.6 °C

molecular target: T3, Serine/threonine-protein kinase VRK3 (Homo sapiens) (UniProt Q8IV63)
T3 sequence (whole entry): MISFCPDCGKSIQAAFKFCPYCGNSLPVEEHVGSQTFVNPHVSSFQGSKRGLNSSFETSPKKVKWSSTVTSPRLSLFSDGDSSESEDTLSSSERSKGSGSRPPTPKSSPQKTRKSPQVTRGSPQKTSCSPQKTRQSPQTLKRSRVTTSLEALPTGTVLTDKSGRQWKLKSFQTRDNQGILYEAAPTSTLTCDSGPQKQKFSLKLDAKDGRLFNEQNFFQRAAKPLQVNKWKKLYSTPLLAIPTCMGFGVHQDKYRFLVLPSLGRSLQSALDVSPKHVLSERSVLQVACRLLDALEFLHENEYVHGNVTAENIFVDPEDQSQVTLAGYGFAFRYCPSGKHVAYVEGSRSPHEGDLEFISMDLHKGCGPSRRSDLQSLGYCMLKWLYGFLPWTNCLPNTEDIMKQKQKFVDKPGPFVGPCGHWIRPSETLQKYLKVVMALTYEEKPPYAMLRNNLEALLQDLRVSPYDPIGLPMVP

Compound	ΔTm
CC(C)(C)n1nc(-c2ccc(Cl)cc2)c2c(N)ncnc21	-0.2 °C
CSc1nc(-c2ccc(F)cc2)c(-c2ccnc(NC(C)c3ccccc3)c2)[nH]1 (racemic)	-0.3 °C
Cc1nc2sccn2c(=O)c1CCN1CCC(=C(c2ccccc2)c2ccc(F)cc2)CC1	0 °C
